The test system of one assay is HIV. The conditions noted are these: human, in vivo; cited from earlier work.
Assay [1] has as its system fusion between HeLa-EnvJR-FL and PM1 cells. As to the method:
HIV-1 envelope-mediated fusion between HeLa-EnvJR-FL and PM1 cells was detected using a Resonance Energy Transfer (RET) assay.
HIV-1 inhibition data were analyzed according to the Combination Index method of Chou and Talay. The data are modeled according to the median-effect principle, which can be written f=1/[1+(K/c)^m] (1) where f is the fraction affected/inhibited, c is concentration, K is the concentration of agent required to produce the median effect, and m is an empirical coefficient describing the shape of the dose-response curve. Equation (1) is a generalized form of the equations describing Michaelis-Menton enzyme kinetics, Langmuir adsorption isotherms, and Henderson-Hasselbalch ionization equilibria, for which m=1 in all cases. In the present case, K is equal to the IC50 value. K and m are determined by curve-fitting the dose-response curves.
After the best-fit parameters for K and m are obtained for the experimental agents and their combination, Equation (1) is rearranged to allow for calculation of c for a given f.
All concentrations are those required to achieve a given degree of inhibition. Equation (2) is used when the molecules are mutually nonexclusive, i.e., have different sites of action. Since this is the likely scenario for inhibitors of HIV-1 attachment and gp41 fusion intermediates, Equation (2) was used for all Combination Index calculations. […] CI<1 indicates synergy, CI=1 indicates purely additive effects, and CI>1 indicates antagonism. In general, CI values are most relevant at the higher levels of inhibition that are required to achieve a measurable clinical benefit.

For the substance enfuvirtide, the “reduction of plasma HIV RNA levels” value in the assay on HIV is ≤ 2 logs. In addition, the “concentration of the agent contained in the combination giving 95% inhibition” value in assay [1] (25:1 CD4-IgG2:T-20 mass ratio) turned out to be 0.044 µg/mL. For the same substance, the “dose reduction by the combination” value in assay [1] (95% inhibition, 25:1 mass ratio) turned out to be 5 fold. Besides, the “K (equal to IC50), best-fit median effect parameter” value in assay [1] (FIG. 8, combination 25:1 CD4-IgG2:T-20) was found to be 0.017 µg/mL. For the same substance, the “concentration required for inhibition of viral entry by 95%” value in assay [1] (agent used alone, or total of 25:1 mass ratio combination) was 0.21 µg/mL.

The values are drawn from US7060273B2, “Methods for inhibiting HIV-1 infection” (priority 2001, dated 2006).
